The values below come from ChEMBL document CHEMBL1136602 (Bioorg Med Chem Lett, 2003).

Assay [1] deals with Mus musculus. The assay is described as follows: Anticocaine activity was assessed through attenuation of convulsions caused by the intraperitoneal administration of cocaine 60 mg/kg in mice. In kind it is functional.
The next assay has as its target Sigma 2 receptor. The assay is described as follows: Binding affinity towards Sigma-2 receptor.
The target of assay [2] is Sigma non-opioid intracellular receptor 1 (Homo sapiens, UniProt Q99720). Briefly: Binding affinity towards Sigma-1 receptor.
Chain of Sigma non-opioid intracellular receptor 1 (Q99720 whole entry): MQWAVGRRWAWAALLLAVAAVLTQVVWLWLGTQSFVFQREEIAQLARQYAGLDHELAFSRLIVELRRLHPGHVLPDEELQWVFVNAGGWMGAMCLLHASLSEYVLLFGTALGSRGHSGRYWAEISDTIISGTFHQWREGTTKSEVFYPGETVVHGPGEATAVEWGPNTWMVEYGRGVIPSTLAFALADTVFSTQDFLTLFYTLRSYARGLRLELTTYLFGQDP
Assay [3] concerns Mus musculus. Briefly: Anticocaine activity was assessed through attenuation of convulsions caused by the intraperitoneal administration of cocaine 60 mg/kg in mice; Agonist activity exacerbated the convulsive effects of cocaine. In kind it is functional, organism-based. The arrangement: dose 60 mg/kg. The conditions noted are these: filed as agonist.

As for `c1ccc(CN2CCN(Cc3ccccc3)CC2)cc1`, the AD50 with Mus musculus [1] came out at 23 mg/kg. In addition, the Ki – broadly, the equilibrium dissociation constant of an inhibitor or competing ligand from its target – on Sigma 2 receptor was 1270 nM.

`Clc1ccc(CN2CCN(Cc3ccccc3)CC2)c(Cl)c1` gave an AD50 in the assay with Mus musculus [1] of 16 mg/kg. For the same molecule, the Ki in assay [2] is 7.6 nM; at Sigma 2 receptor, 123 nM.

Regarding `COc1ccc(CN2CCN(Cc3ccccc3)CC2)cc1`, the AD50 in the assay on Mus musculus [1] is 27 mg/kg. The results for the Ki (in assay [2]; on Sigma 2 receptor) were 0.47 nM and 161 nM, respectively.

With `Clc1ccc(CN2CCN(Cc3ccccc3)CC2)cc1Cl`, the AD50 result in the assay on Mus musculus [3] was “Agonist activity exacerbated the convulsive effects of cocaine”. The results for the Ki (in assay [2]; on Sigma 2 receptor) were 0.58 nM and 7.54 nM, respectively.

With `Clc1ccc(CN2CCN(Cc3ccccc3)CC2)cc1`, the AD50 in the assay with Mus musculus [1] was 29 mg/kg. Besides, the Ki in assay [2] is 1.4 nM; on Sigma 2 receptor it was 187 nM.

In the case of `CN(CCc1ccc(Cl)c(Cl)c1)CCN1CCCC1`, the AD50 in the assay on Mus musculus [1] came to 2 mg/kg. This molecule showed a Ki at Sigma 2 receptor of 8 nM.

In turn, `Clc1ccccc1CN1CCN(Cc2ccccc2)CC1` registered an AD50 in the assay on Mus musculus [1] of 15 mg/kg. In addition, the Ki was found to be 5.3 nM in assay [2] and 527 nM on Sigma 2 receptor.

In the assay with Mus musculus [1], `COc1cccc(CN2CCN(Cc3ccccc3)CC2)c1` displayed an AD50 of 17 mg/kg. Besides, the Ki in assay [2] was 0.39 nM; at Sigma 2 receptor it was 108 nM.

On to `Clc1cccc(CN2CCN(Cc3ccccc3)CC2)c1`, for which the AD50 with Mus musculus [1] turned out to be 8 mg/kg. Besides, the Ki in assay [2] was 0.46 nM; on Sigma 2 receptor, 56.4 nM.
